According to article PMC7100991 (PLoS Pathogens, 2020):

Target: T1, Fusarium graminearum myosin I (FgMyoI) (Fusarium graminearum, UniProt I1RCT2)
T1 construct: gene FGRAMPH1_01T03465
Assay: biochemical

**Q.** How did the IC50 turn out when CCOC(=O)/C(C#N)=C(\N)c1ccccc1 [phenamacril] was run?
**A.** 0.36 µM
